Measured values reported in article PMC4175002, “The Design and Synthesis of Potent and Selective Inhibitors of Trypanosoma brucei Glycogen Synthase Kinase 3 for the Treatment of Human African Trypanosomiasis” (Journal of Medicinal Chemistry, 2014).

Columns and labels:
IKK = experiment: Mammalian kinase profiling (DSTT panel); format: biochemical, human; conditions: 10 μM; average percentage of remaining activity
Experimental: (§1) To assess the selectivity of the aminopyrazole inhibitors, remaining activity at 10 μM concentration was measured for compounds 4f, 4m, and 4y against a panel of 80 human PKs and for compound 9g against 124 human PKs. […] Compound 4m inhibited only two PKs, namely GSK3β and CDK2, at more than 80%.
(§2) Selected compounds were screened against a panel of mammalian kinases routinely run by the Division of Signal Transduction Therapy (DSTT) at the University of Dundee in duplicate at 10 μM.[32] Enzymes included in the panel and assay conditions are reported in the literature. All biochemical assays are run below the Km^app for the ATP for each enzyme, allowing comparison of inhibition across the panel.

PKBb = molecular target: T1, PKBb (Homo sapiens, UniProt P31751); experiment: Mammalian kinase profiling (DSTT panel); format: biochemical; conditions: average percentage of remaining activity, read-out: PKBb activity compared to the control
T1 construct: purchased Division of Signal Transduction Therapy (DSTT), University of Dundee
Experimental: as §1, §2

PRAK = molecular target: T2, PRAK (Homo sapiens, UniProt Q8IW41); experiment: Mammalian kinase profiling (DSTT panel); format: biochemical; conditions: 10 μM; average percentage of remaining activity
T2 construct: purchased Division of Signal Transduction Therapy (DSTT), University of Dundee
T2 sequence (Q8IW41 1-473): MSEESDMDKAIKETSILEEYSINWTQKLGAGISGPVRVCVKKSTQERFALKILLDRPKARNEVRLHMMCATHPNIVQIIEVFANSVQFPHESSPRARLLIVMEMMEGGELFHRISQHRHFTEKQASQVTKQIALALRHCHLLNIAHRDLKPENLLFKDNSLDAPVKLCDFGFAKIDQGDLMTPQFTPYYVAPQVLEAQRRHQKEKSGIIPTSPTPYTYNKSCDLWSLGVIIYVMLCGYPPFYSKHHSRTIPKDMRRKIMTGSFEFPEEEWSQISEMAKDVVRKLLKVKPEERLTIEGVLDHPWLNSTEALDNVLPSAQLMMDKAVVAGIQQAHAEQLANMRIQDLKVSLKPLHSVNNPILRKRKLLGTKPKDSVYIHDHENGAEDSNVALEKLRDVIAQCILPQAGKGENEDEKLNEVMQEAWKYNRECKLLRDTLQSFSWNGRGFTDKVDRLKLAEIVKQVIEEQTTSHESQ
Experimental: as §1, §2

CAMK1 = molecular target: T3, CAMK1 (Homo sapiens, UniProt Q14012); experiment: Mammalian kinase profiling (DSTT panel); format: biochemical; conditions: 10 μM; average percentage of remaining activity
T3 construct: purchased Division of Signal Transduction Therapy (DSTT), University of Dundee
Experimental: as §1, §2

Lck = molecular target: T4, Lck (Homo sapiens, UniProt P06239); experiment: Mammalian kinase profiling (DSTT panel); format: biochemical; conditions: 10 μM; average percentage of remaining activity
T4 construct: purchased Division of Signal Transduction Therapy (DSTT), University of Dundee
Experimental: as §1, §2

IRR = molecular target: T5, IRR (Homo sapiens, UniProt P14616); experiment: Mammalian kinase profiling (DSTT panel); format: biochemical; conditions: 10 μM; average percentage of remaining activity
T5 construct: purchased Division of Signal Transduction Therapy (DSTT), University of Dundee
Experimental: as §1, §2

CK2 = molecular target: T6, CK2 (Homo sapiens, UniProt P68400); experiment: Mammalian kinase profiling (DSTT panel); format: biochemical; conditions: 10 μM; average percentage of remaining activity
T6 construct: purchased Division of Signal Transduction Therapy (DSTT), University of Dundee
Experimental: as §1, §2

P38a MAPK = molecular target: T7, P38a MAPK (Homo sapiens, UniProt Q16539); experiment: Mammalian kinase profiling (DSTT panel); format: biochemical; conditions: 10 μM; average percentage of remaining activity
T7 construct: purchased Division of Signal Transduction Therapy (DSTT), University of Dundee
Experimental: as §1, §2

MSK1 = molecular target: T8, MSK1 (Homo sapiens, UniProt O75582); experiment: Mammalian kinase profiling (DSTT panel); format: biochemical; conditions: 10 μM; average percentage of remaining activity
T8 construct: purchased Division of Signal Transduction Therapy (DSTT), University of Dundee
Experimental: as §1, §2

PKCa = molecular target: T9, PKCa (Homo sapiens, UniProt P17252); experiment: Mammalian kinase profiling (DSTT panel); format: biochemical; conditions: 10 μM; average percentage of remaining activity
T9 construct: purchased Division of Signal Transduction Therapy (DSTT), University of Dundee
Experimental: as §1, §2

BTK = molecular target: T10, BTK (Homo sapiens, UniProt Q06187); experiment: Mammalian kinase profiling (DSTT panel); format: biochemical; conditions: 10 μM; average percentage of remaining activity
T10 construct: purchased Division of Signal Transduction Therapy (DSTT), University of Dundee
Experimental: as §1, §2

RSK1 = molecular target: T11, RSK1 (Homo sapiens, UniProt Q15418); experiment: Mammalian kinase profiling (DSTT panel); format: biochemical; conditions: 10 μM; average percentage of remaining activity
T11 construct: purchased Division of Signal Transduction Therapy (DSTT), University of Dundee
Experimental: as §1, §2

SGK1 = molecular target: T12, SGK1 (Homo sapiens, UniProt O00141); experiment: Mammalian kinase profiling (DSTT panel); format: biochemical; conditions: 10 μM; average percentage of remaining activity
T12 construct: purchased Division of Signal Transduction Therapy (DSTT), University of Dundee
T12 sequence (O00141 1-431): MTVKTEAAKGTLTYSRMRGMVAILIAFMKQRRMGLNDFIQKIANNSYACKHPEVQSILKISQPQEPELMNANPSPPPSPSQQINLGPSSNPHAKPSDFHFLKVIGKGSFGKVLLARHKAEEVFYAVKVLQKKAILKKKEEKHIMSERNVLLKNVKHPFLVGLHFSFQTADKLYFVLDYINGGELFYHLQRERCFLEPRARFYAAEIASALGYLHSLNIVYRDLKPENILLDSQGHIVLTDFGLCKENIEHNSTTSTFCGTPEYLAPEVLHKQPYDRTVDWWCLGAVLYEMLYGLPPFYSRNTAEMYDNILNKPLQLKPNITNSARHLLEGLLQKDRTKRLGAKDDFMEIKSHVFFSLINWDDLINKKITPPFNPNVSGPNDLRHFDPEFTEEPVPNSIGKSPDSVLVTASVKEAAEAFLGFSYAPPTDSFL
Experimental: as §1, §2

HsGSK3β = HsGSK3β (Homo sapiens, UniProt P49841); experiment: Radiometric Flashplate potency assay, HsGSK3β; format: biochemical; conditions: ratio of IC50 values
Experimental: For compound potency determinations, a radiometric 96-well Flashplate assay (PerkinElmer) was adopted. Compounds were solubilized in DMSO at a top concentration of 3 mM and serially diluted to achieve 10-point titration of final assay concentrations from 30 μM to 0.3 nM with a final DMSO concentration of 1% (v/v). The reaction mixtures contained 1 μM biotinylated GSP2 substrate, 1 μM ATP, 3.7 KBq/well [γ-33P]-ATP and 2.5 nM TbGSK3 in the TbGSK3 kinase assay buffer. GSK3 inhibitors were screened for selectivity assessment also against HsGSK3β. For HsGSK3 assay, the reaction mixes contained 1 μM biotinylated GSP2 substrate, 2 μM ATP, 7.4 KBq/well [γ-33P]-ATP and 15 nM HsGSK3β in the TbGSK3 kinase assay buffer (25 mM Tris-HCl, pH 7.5, 10 mM MgCl2, 5 mM DTT, 0.02% CHAPS, 2 U/mL heparin). For HsCDK2/cyclin A assay, the reaction mixtures contained 1 mM CDK5 biotinylated peptide substrate (Biotin-C6-PKTPKKAKKL), 1 μM ATP, 7.4 KBq/well [γ-^33P]-ATP and 2 nM HsCDK2/cyclin A in the kinase assay buffer (50 mM Tris-HCl, pH 7.5, 10 mM MgCl2, 2 mM DTT, 100 mM NaCl, 0.2 mM EGTA, 0.02% (v/v) Brij35).
This implies that a difference of >0.3 in pIC50 can be considered statistically significant for this assay.

T3 sequence (Q14012 whole entry): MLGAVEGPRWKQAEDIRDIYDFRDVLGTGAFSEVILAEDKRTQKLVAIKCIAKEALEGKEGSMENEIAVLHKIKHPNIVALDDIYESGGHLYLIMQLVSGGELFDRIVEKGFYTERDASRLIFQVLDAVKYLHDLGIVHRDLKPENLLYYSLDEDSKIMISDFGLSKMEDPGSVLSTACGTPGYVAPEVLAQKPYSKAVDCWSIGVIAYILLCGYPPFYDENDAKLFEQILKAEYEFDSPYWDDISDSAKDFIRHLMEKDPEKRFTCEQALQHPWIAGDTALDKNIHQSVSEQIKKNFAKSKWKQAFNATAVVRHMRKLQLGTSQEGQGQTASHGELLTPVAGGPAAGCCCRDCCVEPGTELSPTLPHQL
T10 sequence (Q06187 whole entry): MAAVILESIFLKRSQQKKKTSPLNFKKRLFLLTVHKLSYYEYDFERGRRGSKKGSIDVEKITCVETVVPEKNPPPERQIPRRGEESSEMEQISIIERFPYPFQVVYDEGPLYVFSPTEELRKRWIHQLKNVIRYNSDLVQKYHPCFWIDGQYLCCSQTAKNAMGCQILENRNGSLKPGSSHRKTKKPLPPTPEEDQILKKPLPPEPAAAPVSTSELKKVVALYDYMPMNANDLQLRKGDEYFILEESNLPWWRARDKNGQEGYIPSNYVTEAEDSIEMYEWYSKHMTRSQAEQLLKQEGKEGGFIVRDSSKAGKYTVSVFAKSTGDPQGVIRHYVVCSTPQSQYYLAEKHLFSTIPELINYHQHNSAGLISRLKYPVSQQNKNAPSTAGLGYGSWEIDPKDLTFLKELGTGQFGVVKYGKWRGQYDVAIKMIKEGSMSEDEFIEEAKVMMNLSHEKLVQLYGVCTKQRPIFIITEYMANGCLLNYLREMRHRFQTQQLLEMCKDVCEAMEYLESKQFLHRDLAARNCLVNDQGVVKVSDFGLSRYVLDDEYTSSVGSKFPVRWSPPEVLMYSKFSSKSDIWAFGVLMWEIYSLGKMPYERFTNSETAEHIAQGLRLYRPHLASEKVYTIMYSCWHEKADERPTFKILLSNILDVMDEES
T11 sequence (Q15418 whole entry): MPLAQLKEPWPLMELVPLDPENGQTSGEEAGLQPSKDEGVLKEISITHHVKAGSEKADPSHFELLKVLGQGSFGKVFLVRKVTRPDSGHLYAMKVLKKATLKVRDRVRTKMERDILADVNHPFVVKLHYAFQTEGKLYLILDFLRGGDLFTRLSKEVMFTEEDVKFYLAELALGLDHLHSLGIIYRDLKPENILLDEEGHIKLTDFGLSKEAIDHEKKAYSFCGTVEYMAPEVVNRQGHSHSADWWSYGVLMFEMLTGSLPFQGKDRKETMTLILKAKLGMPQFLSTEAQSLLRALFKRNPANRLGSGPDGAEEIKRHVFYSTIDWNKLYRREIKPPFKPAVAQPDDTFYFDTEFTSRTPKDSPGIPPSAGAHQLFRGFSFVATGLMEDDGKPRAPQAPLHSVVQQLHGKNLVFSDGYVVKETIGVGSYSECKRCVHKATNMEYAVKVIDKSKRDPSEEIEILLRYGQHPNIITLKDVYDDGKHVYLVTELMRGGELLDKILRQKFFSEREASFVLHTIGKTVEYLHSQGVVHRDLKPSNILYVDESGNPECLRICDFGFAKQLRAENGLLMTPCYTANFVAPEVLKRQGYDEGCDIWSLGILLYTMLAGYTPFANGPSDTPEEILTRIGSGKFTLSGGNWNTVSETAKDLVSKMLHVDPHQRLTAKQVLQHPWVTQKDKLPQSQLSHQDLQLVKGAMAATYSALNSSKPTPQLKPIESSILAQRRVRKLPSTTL
T8 sequence (O75582 whole entry): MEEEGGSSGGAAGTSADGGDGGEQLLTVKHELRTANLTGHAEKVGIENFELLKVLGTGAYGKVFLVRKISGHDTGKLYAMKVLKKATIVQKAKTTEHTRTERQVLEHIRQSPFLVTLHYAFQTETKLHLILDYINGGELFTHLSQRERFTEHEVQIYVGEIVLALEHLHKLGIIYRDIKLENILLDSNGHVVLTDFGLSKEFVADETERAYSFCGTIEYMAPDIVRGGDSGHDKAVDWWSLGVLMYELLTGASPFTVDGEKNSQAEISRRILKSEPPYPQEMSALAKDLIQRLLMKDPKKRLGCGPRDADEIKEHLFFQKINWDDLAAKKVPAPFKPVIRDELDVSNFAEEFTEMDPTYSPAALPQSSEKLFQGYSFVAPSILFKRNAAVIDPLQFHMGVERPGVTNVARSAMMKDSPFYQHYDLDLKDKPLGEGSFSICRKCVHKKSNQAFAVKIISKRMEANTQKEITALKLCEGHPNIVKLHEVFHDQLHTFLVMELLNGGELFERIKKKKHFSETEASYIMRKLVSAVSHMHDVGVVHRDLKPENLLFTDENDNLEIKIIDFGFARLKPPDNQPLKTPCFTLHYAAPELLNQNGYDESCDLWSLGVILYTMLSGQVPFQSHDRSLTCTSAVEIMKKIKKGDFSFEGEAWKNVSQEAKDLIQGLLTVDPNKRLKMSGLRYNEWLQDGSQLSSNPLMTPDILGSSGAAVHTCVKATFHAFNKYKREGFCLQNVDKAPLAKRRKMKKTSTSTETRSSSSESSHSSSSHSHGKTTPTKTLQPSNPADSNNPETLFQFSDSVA
T6 sequence (P68400 whole entry): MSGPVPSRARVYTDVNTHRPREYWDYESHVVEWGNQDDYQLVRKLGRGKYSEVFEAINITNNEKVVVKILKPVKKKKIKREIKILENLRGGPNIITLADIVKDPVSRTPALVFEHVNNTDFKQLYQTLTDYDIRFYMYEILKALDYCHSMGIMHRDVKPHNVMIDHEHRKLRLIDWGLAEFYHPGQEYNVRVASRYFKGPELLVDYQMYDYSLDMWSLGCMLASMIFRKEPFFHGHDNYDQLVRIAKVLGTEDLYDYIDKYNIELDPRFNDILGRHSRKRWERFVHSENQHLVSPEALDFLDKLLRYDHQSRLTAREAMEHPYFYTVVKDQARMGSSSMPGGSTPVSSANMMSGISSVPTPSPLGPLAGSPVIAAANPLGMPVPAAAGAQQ
T4 sequence (P06239 whole entry): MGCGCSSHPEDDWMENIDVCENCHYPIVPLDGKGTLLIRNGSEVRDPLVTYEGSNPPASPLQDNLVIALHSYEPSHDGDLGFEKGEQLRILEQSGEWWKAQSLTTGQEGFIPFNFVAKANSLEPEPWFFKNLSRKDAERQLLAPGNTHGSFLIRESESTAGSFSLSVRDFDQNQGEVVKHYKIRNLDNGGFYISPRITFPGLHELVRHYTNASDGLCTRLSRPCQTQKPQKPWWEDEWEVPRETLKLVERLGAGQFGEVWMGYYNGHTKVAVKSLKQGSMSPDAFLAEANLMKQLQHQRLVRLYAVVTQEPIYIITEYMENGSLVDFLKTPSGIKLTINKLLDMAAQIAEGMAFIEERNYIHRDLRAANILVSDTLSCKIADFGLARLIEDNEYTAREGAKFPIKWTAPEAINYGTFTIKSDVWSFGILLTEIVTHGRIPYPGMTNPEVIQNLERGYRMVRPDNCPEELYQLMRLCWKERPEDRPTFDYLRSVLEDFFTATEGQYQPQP
T1 sequence (P31751 whole entry): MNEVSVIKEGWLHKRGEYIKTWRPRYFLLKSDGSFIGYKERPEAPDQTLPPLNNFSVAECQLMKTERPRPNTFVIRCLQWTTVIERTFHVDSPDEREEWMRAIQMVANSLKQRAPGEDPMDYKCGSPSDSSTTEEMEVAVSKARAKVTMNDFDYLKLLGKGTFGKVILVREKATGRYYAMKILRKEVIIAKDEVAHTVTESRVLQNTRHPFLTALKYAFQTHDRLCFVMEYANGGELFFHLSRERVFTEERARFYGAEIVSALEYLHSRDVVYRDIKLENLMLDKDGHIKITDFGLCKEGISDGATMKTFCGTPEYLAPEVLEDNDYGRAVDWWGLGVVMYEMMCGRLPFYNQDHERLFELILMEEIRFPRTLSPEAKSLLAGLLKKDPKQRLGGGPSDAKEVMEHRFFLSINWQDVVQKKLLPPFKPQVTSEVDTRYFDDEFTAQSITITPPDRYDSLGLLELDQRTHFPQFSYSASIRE
T7 sequence (Q16539 whole entry): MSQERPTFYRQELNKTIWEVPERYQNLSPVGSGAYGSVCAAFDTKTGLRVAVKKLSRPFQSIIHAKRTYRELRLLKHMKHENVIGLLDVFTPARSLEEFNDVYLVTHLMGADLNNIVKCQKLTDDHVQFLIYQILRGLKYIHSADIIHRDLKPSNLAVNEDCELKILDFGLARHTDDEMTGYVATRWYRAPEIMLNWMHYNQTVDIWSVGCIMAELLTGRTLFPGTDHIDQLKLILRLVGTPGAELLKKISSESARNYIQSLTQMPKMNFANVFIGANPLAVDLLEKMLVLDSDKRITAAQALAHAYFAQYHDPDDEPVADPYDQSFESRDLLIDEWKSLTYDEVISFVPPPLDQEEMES

CO[C@H]1CC[C@H](NC(=O)c2n[nH]cc2NC(=O)c2ccccc2)CC1 [Compound 4f, 4-Benzamido-N-(4-methoxycyclohexyl)-1H-pyrazole-3-carboxamide]
IKK activity compared to the control (IKK): 68%
remaining activity at 10 µM (PKBb): 45%
PRAK activity compared to the control (PRAK): 52%
CAMK1 activity compared to the control (CAMK1): 36%
Lck activity compared to the control (Lck): 76%
IRR activity compared to the control (IRR): 39%
CK2 activity compared to the control (CK2): 74%
P38a MAPK activity compared to the control (P38a MAPK): 81%
MSK1 activity compared to the control (MSK1): 80%
PKCa activity compared to the control (PKCa): 49%
BTK activity compared to the control (BTK): 100%
RSK1 activity compared to the control (RSK1): 74%
SGK1 activity compared to the control (SGK1): 89%
ratio HsGSK3β/TbGSK3 (HsGSK3β): >0.21

COc1cccc(OC)c1C(=O)Nc1c[nH]nc1C(=O)NC1CCC(OC)CC1 (stereo not drawn) [Compound 4m, 4-(2,6-Dimethoxybenzamido)-N-(4-methoxycyclohexyl)-1H-pyrazole-3-carboxamide]
IKK activity compared to the control (IKK): 90%
remaining activity at 10 µM (PKBb): 98%
PRAK activity compared to the control (PRAK): 92%
CAMK1 activity compared to the control (CAMK1): 76%
Lck activity compared to the control (Lck): 90%
IRR activity compared to the control (IRR): 87%
CK2 activity compared to the control (CK2): 100%
P38a MAPK activity compared to the control (P38a MAPK): 80%
MSK1 activity compared to the control (MSK1): 86%
PKCa activity compared to the control (PKCa): 90%
BTK activity compared to the control (BTK): 100%
RSK1 activity compared to the control (RSK1): 70%
SGK1 activity compared to the control (SGK1): 92%
ratio HsGSK3β/TbGSK3 (HsGSK3β): <2.5

CO[C@H]1CC[C@H](NC(=O)c2n[nH]cc2NC(=O)c2ccc(-c3ccccc3)o2)CC1 [Compound 4y, N-(4-Methoxycyclohexyl)-4-(5-phenylfuran-2-carboxamido)-1H-pyrazole-3-carboxamide]
IKK activity compared to the control (IKK): 71%
remaining activity at 10 µM (PKBb): 84%
PRAK activity compared to the control (PRAK): 65%
CAMK1 activity compared to the control (CAMK1): 46%
Lck activity compared to the control (Lck): 67%
IRR activity compared to the control (IRR): 26%
CK2 activity compared to the control (CK2): 21%
P38a MAPK activity compared to the control (P38a MAPK): 71%
MSK1 activity compared to the control (MSK1): 66%
PKCa activity compared to the control (PKCa): 48%
BTK activity compared to the control (BTK): 100%
RSK1 activity compared to the control (RSK1): 54%
SGK1 activity compared to the control (SGK1): 81%
ratio HsGSK3β/TbGSK3 (HsGSK3β): <0.72
